Source: patent US11701315B2, “High energy visible light filter systems with yellowness index values” (High Performance Optics, Inc., priority 2006, dated 2023)

Tests used:
[1] = in methanol, cited from earlier work
[2] = Transmission and absorption properties stated in the text for known lenses and dyes; type: physicochemical

SMILES | maximum of excitation spectrum ([1]; monitored at 600 nm emission) [nm] | major peak of absorbance spectrum [1] [nm] | absorption maximum [2] [nm]
CC1=C(/C=C/C(C)=C/C=C/C(C)=C/c2cc(/C=C/C=C(C)/C=C/C3=C(C)CCCC3(C)C)cc[n+]2CCO)C(C)(C)CCC1 [A2E] | 418 | 435 | –
c1cc2cccc3c4cccc5cccc(c(c1)c23)c54 [perylene] | – | – | 437
